Patent US9949979B2, “Use of inhibitors of the activity or function of PI3K” (NOVARTIS AG, priority 2011, dated 2018)

Target: PI3K delta (Homo sapiens, UniProt O00329)
Test: PI3K delta inhibition in Rat1-myr-HA-p110 delta cells (Akt Ser473 phosphorylation, AlphaScreen SureFire)
Format: cell-based
Set-up: myristylation signal (myr) (N); HA tag (N); expressed in transfected cells; host or cells: Rat1 cells, stably transfected
Conditions: read-out: Cell PI3Kδ/ IC50
Experimental: Untreated cells were used as low controls, cells stimulated in absence of compounds were used as high controls. […] Cell lysates were either used immediately of stored frozen (in sealed plates) at −20° C. until use. […] Addition of AlphaScreen® SureFire® reagents was done according to the manufacturer's protocol. First, 5 ul of reaction buffer plus activation buffer mix containing AlphaScreen® acceptor beads was added, the plate was sealed, and incubated on a plate shaker for 2 hours at room temperature. […] The difference between high and low controls was taken as 100% and compound effects were expressed as percent inhibition. IC50 values were determined from the dose response curves by graphical extrapolation.

Chain of PI3K delta (O00329 whole entry): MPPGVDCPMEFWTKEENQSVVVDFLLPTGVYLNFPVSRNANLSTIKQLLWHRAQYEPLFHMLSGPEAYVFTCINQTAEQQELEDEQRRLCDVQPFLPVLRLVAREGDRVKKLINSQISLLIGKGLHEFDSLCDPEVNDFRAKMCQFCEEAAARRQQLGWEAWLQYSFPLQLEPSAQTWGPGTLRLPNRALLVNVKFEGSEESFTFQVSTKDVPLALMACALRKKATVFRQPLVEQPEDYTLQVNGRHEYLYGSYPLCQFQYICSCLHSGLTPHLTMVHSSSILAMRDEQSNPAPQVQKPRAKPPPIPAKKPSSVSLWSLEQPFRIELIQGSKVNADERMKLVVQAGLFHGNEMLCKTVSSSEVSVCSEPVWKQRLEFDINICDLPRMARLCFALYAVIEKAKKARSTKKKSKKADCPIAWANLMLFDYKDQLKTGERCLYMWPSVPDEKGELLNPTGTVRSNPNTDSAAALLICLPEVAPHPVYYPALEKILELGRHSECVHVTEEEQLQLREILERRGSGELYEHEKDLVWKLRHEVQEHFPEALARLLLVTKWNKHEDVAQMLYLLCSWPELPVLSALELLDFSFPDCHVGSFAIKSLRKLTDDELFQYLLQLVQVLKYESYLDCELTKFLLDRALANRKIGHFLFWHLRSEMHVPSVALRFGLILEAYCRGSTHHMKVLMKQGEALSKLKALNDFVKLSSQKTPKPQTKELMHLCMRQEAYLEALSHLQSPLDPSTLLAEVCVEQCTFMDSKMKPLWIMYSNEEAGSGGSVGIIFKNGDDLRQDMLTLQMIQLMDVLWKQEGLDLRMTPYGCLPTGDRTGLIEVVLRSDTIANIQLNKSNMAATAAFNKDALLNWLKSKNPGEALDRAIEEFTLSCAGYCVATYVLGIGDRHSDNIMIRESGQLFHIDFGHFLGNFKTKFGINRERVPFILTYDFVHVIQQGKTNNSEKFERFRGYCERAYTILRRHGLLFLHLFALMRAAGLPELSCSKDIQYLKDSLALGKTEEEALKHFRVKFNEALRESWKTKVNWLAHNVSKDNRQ
Chain of PI3K delta (Q63787 whole entry partner): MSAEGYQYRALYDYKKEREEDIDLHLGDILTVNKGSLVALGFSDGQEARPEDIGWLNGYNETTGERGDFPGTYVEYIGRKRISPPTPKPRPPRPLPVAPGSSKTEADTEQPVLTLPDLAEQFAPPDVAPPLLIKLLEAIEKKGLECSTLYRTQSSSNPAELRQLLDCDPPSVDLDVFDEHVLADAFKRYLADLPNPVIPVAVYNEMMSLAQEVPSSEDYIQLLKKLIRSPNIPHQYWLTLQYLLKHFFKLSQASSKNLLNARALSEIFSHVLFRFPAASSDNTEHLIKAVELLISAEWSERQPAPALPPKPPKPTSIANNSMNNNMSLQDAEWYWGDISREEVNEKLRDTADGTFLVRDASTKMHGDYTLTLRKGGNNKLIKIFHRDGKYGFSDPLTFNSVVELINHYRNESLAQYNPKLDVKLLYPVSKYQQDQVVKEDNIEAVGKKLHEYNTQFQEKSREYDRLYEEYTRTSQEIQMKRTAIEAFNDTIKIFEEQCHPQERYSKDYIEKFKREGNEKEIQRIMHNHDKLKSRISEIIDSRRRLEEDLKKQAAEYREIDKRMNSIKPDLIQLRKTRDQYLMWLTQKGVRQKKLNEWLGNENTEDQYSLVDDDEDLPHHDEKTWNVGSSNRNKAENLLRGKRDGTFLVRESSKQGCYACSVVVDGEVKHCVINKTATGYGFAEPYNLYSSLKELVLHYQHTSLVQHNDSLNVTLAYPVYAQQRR

IC50: 254 nM
Structure (SMILES): COc1ncc(N2CCc3ncnc(O[C@H]4CCN(C(=O)c5cn(C)cn5)C4)c3C2)cc1C [Example 20, {(S)-3-[6-(6-Methoxy-5-methyl-pyridin-3-yl)-5,6,7,8-tetrahydro-pyrido[4,3-d]pyrimidin-4-yloxy]-pyrrolidin-1-yl}-(1-methyl-1H-imidazol-4-yl)-methanone]
